In ChEMBL document CHEMBL2157979, “Discovery of new non-steroidal FXR ligands via a virtual screening workflow based on Phase shape and induced fit docking” (Bioorg Med Chem Lett, 2012):

Assays:
[1] = molecular target: T1, Bile acid receptor (Homo sapiens, UniProt Q96RI1); test: Agonist activity at FXR; assay type: functional
T1 sequence (Q96RI1 whole entry): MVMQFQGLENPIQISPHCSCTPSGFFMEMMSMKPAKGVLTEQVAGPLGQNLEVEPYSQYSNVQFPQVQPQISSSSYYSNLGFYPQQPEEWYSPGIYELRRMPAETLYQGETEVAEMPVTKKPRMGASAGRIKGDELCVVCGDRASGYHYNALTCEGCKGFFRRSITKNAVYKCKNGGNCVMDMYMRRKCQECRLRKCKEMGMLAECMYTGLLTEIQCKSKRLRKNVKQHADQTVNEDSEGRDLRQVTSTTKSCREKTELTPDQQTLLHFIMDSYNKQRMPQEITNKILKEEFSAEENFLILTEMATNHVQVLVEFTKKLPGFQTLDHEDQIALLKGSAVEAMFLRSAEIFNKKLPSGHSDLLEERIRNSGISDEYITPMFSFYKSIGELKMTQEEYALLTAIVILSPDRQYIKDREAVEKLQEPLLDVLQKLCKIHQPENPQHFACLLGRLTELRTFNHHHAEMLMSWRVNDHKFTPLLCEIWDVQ

[2] = molecular target: T2, Bile acid receptor (Homo sapiens) (UniProt Q96RI1); test: Agonist activity at GST-tagged FXRalpha ligand binding domain assessed as biotinylated SRC1 binding at 20 uM after 30 mins by HTRF assay
T2 sequence (whole entry): T1 sequence (Q96RI1 whole entry)

[3] = molecular target: T1, Bile acid receptor; test: (§1) Antagonist activity at GST-tagged FXRalpha ligand binding domain assessed as inhibition of CDCA-induced biotinylated SRC1 binding after 30 mins by HTRF assay
[4] = molecular target: T2, Bile acid receptor (Homo sapiens); test: as §1
[5] = molecular target: T2, Bile acid receptor (Homo sapiens); test: Antagonist activity at GST-tagged FXRalpha ligand binding domain assessed as inhibition of CDCA-induced biotinylated SRC1 binding at 20 uM after 30 mins by HTRF assay
[6] = molecular target: T1, Bile acid receptor; test: (§2) Agonist activity at FXRalpha expressed in HEK293 cells assessed as increase in transcriptional activity after 18 hrs by luciferase reporter gene assay; assay type: functional, cell-based
[7] = molecular target: T2, Bile acid receptor (Homo sapiens); test: as §2; assay type: functional, cell-based
[8] = molecular target: T1, Bile acid receptor; test: (§3) Agonist activity at GST-tagged FXRalpha ligand binding domain assessed as biotinylated SRC1 binding after 30 mins by HTRF assay
[9] = molecular target: T2, Bile acid receptor (Homo sapiens); test: as §3

| EC50 [1] [µM] | Activity [2] [%] | IC50 [3] [µM] | inhibition [4] | inhibition [5] [%] | EC50 [6] [µM] | Activity [7] | EC50 [8] [µM] | Activity [9] | SMILES |
| --- | --- | --- | --- | --- | --- | --- | --- | --- | --- |
| 0.094 |  |  |  |  |  |  |  |  | Cc1cc(OCc2c(-c3c(Cl)cncc3Cl)noc2C(C)C)ccc1-c1ccc2c(c1)c(C(=O)O)cn2C |
|  | < 5 | 3.77 | Dose-dependent effect | 63.3 |  |  |  |  | O=C(COC(=O)c1ccc(O)cc1)Nc1sc2c(c1C(=O)c1ccccc1)CCCC2 |
|  | 52.5 |  |  | 7.28 | 2.6 | Dose-dependent effect | 12.9 | Dose-dependent effect | NC(=O)c1ccc(NC(=O)[C@@H](Cc2ccccc2)NC(=O)c2ccc(Cl)cc2)cc1 |
|  | < 5 | 8.23 | Dose-dependent effect | 57.1 |  |  |  |  | C[C@@H]1CCc2c(sc3nc(CN4CCOCC4)nc(N[C@H](c4ccccc4)c4ccccn4)c23)C1 |
| 0.036 |  |  |  |  |  |  |  |  | COC(=O)/C=C/c1cccc(N(Cc2ccc(/C=C/c3ccccc3)cc2)C(=O)C2CCCCC2)c1 |
